Tests used:
Assay type in all cases: cell-based
[1] = molecular target: T1, human TLR7 (Homo sapiens, UniProt Q9NYK1); assay: TLR7 inhibition reporter assay (HEK-Blue cells, SEAP reporter, gardiquimod stimulation); settings: HEK-Blue cells overexpressing human TLR7, SEAP reporter, gardiquimod 7.5 μM
T1 construct: host or cells: HEK-Blue cells
T1 sequence (Q9NYK1 27-1049): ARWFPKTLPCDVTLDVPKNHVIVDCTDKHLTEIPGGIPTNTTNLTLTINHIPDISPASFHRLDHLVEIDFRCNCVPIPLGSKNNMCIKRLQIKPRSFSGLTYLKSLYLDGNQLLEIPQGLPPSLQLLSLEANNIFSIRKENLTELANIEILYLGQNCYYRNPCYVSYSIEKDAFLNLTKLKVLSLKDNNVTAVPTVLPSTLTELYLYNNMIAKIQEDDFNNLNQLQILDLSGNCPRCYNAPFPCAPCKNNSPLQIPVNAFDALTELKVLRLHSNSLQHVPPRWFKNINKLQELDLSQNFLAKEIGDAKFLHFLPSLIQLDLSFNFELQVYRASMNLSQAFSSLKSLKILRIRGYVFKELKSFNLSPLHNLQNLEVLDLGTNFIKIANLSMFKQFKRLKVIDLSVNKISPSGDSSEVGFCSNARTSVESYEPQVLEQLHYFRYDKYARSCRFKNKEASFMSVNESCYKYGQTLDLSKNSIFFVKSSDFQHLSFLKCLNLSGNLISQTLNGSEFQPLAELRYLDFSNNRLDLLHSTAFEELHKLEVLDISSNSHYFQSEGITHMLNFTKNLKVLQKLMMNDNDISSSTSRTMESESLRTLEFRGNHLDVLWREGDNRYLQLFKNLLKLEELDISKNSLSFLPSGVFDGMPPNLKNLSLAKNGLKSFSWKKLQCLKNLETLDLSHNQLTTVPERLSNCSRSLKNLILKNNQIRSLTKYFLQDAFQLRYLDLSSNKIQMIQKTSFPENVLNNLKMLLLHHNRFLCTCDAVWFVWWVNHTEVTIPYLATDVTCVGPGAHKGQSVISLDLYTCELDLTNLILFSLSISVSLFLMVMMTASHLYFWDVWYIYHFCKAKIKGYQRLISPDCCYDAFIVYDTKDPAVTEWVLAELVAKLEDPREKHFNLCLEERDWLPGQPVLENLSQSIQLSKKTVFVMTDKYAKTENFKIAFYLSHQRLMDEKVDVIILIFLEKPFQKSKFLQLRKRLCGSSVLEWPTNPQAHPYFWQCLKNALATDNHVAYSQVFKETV
Summary of the method: (§1)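 Percent inhibition of agonist-induced SEAP, set between agonist+DMSO wells and known-inhibitor wells, after 22 h at 37° C. Compounds (0.05 nM-50 μM final) were added 30 min at room temperature before ligand: gardiquimod 7.5 μM for TLR7, R848 15.9 μM for TLR8, ODN2006 5 nM for TLR9. Human receptors overexpressed in HEK-Blue reporter cells.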

[2] = molecular target: T2, human TLR8 (Homo sapiens, UniProt Q9NR97); assay: TLR8 inhibition reporter assay (HEK-Blue cells, SEAP reporter, R848 stimulation); settings: HEK-Blue cells overexpressing human TLR8, SEAP reporter, R848 15.9 μM
T2 construct: host or cells: HEK-Blue cells
T2 sequence (Q9NR97 27-1041): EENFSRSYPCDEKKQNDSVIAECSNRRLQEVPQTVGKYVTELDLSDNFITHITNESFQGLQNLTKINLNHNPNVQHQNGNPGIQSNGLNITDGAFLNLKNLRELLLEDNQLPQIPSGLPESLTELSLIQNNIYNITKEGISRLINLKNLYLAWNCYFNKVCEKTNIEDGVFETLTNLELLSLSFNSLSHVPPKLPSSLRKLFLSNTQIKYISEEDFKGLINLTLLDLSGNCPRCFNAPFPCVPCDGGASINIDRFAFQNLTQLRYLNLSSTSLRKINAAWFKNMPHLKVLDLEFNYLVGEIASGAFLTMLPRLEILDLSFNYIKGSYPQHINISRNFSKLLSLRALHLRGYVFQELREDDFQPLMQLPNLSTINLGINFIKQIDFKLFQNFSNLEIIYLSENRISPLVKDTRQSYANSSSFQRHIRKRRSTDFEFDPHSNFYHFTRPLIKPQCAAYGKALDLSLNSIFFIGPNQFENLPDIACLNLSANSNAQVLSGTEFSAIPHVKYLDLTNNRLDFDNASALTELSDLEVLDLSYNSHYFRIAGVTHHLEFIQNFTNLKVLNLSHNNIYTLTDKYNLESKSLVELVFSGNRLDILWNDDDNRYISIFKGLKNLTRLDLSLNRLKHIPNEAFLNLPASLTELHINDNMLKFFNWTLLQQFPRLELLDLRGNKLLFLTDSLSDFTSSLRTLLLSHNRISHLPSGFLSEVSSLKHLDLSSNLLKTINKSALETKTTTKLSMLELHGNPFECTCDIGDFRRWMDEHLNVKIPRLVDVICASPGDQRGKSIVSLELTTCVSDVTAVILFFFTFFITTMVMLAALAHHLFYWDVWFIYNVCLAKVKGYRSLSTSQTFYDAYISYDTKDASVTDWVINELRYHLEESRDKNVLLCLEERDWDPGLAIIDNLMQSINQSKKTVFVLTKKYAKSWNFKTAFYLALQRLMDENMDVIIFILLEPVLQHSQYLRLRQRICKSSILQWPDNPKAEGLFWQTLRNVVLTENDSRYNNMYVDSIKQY
Summary of the method: as §1

[3] = molecular target: T3, human TLR9 (Homo sapiens, UniProt Q9NR96); assay: TLR9 inhibition reporter assay (HEK-Blue cells, SEAP reporter, ODN2006 stimulation); settings: HEK-Blue cells overexpressing human TLR9, SEAP reporter, ODN2006 5 nM
T3 construct: host or cells: HEK-Blue cells
T3 sequence (Q9NR96 26-1032): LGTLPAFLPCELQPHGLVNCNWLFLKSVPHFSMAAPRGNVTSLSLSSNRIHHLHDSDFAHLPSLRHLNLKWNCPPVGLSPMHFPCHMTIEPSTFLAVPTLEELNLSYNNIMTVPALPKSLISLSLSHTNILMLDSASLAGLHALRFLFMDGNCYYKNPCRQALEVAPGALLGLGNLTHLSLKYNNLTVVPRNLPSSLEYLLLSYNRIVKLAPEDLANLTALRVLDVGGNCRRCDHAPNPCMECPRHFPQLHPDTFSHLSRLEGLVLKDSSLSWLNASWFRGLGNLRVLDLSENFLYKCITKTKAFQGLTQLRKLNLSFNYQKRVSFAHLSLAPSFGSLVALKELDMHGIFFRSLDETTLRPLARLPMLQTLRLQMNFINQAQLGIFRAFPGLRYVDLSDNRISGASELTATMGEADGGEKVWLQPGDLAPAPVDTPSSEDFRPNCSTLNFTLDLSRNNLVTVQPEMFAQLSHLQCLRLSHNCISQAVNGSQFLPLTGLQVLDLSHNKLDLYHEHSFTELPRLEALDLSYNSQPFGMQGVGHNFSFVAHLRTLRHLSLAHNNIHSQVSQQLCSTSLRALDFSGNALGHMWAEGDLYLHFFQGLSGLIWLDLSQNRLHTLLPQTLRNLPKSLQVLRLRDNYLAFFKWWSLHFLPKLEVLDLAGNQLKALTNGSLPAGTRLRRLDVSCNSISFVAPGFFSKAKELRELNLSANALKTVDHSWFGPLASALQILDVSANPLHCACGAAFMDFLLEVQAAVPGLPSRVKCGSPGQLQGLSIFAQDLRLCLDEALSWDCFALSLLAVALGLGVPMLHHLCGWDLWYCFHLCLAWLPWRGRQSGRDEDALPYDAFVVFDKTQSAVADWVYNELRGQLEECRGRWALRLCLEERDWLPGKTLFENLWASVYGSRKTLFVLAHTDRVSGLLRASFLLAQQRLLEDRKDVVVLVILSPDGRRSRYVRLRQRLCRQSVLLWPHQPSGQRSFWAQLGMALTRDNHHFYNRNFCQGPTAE
Summary of the method: as §1

SMILES	IC50 [1] [nM]	IC50 [2] [nM]	IC50 [3] [nM]
Cc1cc(-c2[nH]nc(C(=O)NCCc3ccccn3)c2C(C)C)cn2ncnc12 [Example 4]	5.52	33.9	287
Cc1cc(-c2[nH]nc(C(=O)N[C@H]3CC[C@@H](N(C)C)CC3)c2C(C)C)cn2ncnc12 [Example 84]	0.9	0.84	9110
CCCN1CCC(NC(=O)c2n[nH]c(-c3cc(OC)c4ncnn4c3)c2CC(F)(F)F)CC1 [Example 195, 5-(8-methoxy-[1,2,4]triazolo[1,5-a]pyridin-6-yl)-N-(1-propylpiperidin-4-yl)-4-(2,2,2-trifluoroethyl)-1H-pyrazole-3-carboxamide]	2.24	1.66	5500
Cc1cc(-c2[nH]nc(C(=O)N[C@H]3CC[C@H](N(C)C)CC3)c2C(C)C)cn2ncnc12 [Example 82]	4.69	43.6	> 50000
COCC(C)N[C@H]1CC[C@@H](NC(=O)c2n[nH]c(-c3cc(C)c4ncnn4c3)c2C(C)C)CC1 (stereo partly drawn) [Example 147]	90.1	5.67	18800
Cc1cc(-c2[nH]nc(C(=O)N[C@H]3CC[C@H](NC(C)C(C)C)CC3)c2C(C)C)cn2ncnc12 (stereo partly drawn) [Example 118]	2	1.26	3300
Cc1cc(-c2[nH]nc(C(=O)NC3CCN(C(C)C)CC3)c2C(C)C)cn2ccnc12 [Example 37]	12.1	27	27900
CNC1CCC(NC(=O)c2n[nH]c(-c3cc(C)c4ncnn4c3)c2C(C)C)CC1 (stereo not drawn) [Example 130]	0.45	2.42	11500
Cc1cc(-c2[nH]nc(C(=O)N[C@H]3CC[C@@H](NCC(C)(C)C)CC3)c2C(C)C)cn2ncnc12 [Example 89]	1.48	18.9	4100
Cc1cc(-c2[nH]nc(C(=O)NC3CCN(CC4CC4)CC3)c2C(C)C)cn2ncnc12 [Example 73]	0.96	12.7	4280
Cc1cc(-c2[nH]nc(C(=O)NC3CCOCC3)c2C(C)C)cn2ncnc12 [Example 28]	39	265	645
Cc1cc(-c2[nH]nc(C(=O)N[C@H]3CC[C@@H](NC4COC4)CC3)c2C(C)C)cn2ncnc12 [Example 86]	1.34	0.7	6420
Cc1cc(-c2[nH]nc(C(=O)N[C@@H]3CCNC3)c2C(C)C)cn2ncnc12 [Example 50]	1.27	2.74	17300

Continued, values first:

IC50 [1] [nM]	IC50 [2] [nM]	IC50 [3] [nM]	SMILES
3.18	0.46	7520	Cc1cc(-c2[nH]nc(C3CCC(N4CCC(N(C)C)CC4)CC3)c2C(C)C)cn2ncnc12 (single isomer, unassigned) [Example 292]
1.43	0.33	10800	Cc1cc(-c2[nH]nc(-c3ccc4c(c3)CCNC4)c2C(C)C)cc(C)n1 [Example 278, 6-(5-(2,6-dimethylpyridin-4-yl)-4-isopropyl-1H-pyrazol-3-yl)-1,2,3,4-tetrahydroisoquinoline]
19	0.19	> 50000	CCN1CC(c2ccc(-c3n[nH]c(-c4cc(C)c5ncnn5c4)c3C(C)C)cc2)C1 [Example 325]
7.1	3.71	4960	Cc1cc(-c2[nH]nc(-c3ccc(C(N)=O)cc3)c2C(C)C)cn2ncnc12 [Example 229]
1400	> 3130	18800	Cc1cc(-c2[nH]nc(-c3ccc(C4CCN(C5COC5)CC4)cc3)c2C(C)C)cn2ncnc12 [Example 311]
3.23	5.63	9790	CNC(=O)CN1CCC(NC(=O)c2n[nH]c(-c3cc(C)c4ncnn4c3)c2C(C)C)CC1 [compound 177]
10.1	31.1	45600	COc1cc(-c2[nH]nc(-c3ccc(C4CN(CCS(C)(=O)=O)C4)cc3)c2C(C)C)cn2ncnc12 [Example 338]
22.9	44.5	> 50000	CCN1CCC(c2ccc(-c3n[nH]c(-c4cc(OC)c5ncnn5c4)c3C(C)C)nc2)CC1 [Example 347, 6-(3-(5-(1-ethylpiperidin-4-yl)pyridin-2-yl)-4-isopropyl-1H-pyrazol-5-yl)-8-methoxy-[1,2,4]triazolo[1,5-a]pyridine]
13.7	26.5	5550	CNC(=O)CN1CCc2cc(-c3n[nH]c(-c4cc(C)c5ncnn5c4)c3C(C)C)ccc2C1 [Example 273]
1220	1330	> 50000	CCN1CCC(c2ccc(-c3n[nH]c(-c4cc(C)c5ncnn5c4)c3C(C)C)cn2)CC1 [Example 360]
4.54	2.8	6300	COc1cc(-c2[nH]nc(-c3cnc(C4CCN(CC5CCOCC5)CC4)cn3)c2C(C)C)cn2ncnc12 [Example 376]

Reference: patent publication US20230117470A1, “SUBSTITUTED PYRAZOLE COMPOUNDS AS TOLL RECEPTOR INHIBITORS” (BRISTOL-MYERS SQUIBB COMPANY, priority 2019, published 2023)
